Results as given in PMC11784839, “Monoaminergic neurotransmitters are bimodal effectors of tau aggregation” (Science Advances, 2025).

Target: tau (Homo sapiens, UniProt P10636)
Assay: MCE Phenols Library screening, tau biosensor cell seeding assay (AvZ)
Assay type: cell-based
Details: for Z repl 1 / Z Repl 2: Z score; for Z repl 1 / raw data 1: replicate 1; for raw data 2 / Z Repl 2: replicate 2
[1] = average Z score of the two replicates, MCE Phenols Library screen
[2] = average puncta of the two replicates
[3] = average Z score of two replicates, Phenols Library screen
[4] = average Z score of the two replicates, tau seeding

Chain of tau (P10636 623-695 limits assumed): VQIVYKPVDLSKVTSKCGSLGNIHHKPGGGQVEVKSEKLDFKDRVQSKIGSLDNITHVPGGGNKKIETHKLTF

Structure (SMILES)	Z repl 1	av Z [1]	av puncta (average of raw data 1 and 2)	raw data 1 (puncta)	raw data 2 (puncta)	Z Repl 2	av puncta [2]	av Z [3]	av Z [4]	av Z (average Z score of the two replicates, tau biosensor seeding, MCE Phenols Library screen)	raw data 1 (raw puncta)	raw data 2 (raw puncta)
Oc1cc(O)cc(/C=C/c2ccc(O)c(O)c2)c1 [Piceatannol]	-1.302	-1.235	5506.01	10717.8	294.245							
COc1cc(C(=O)O[C@H]2[C@@H]3C=CO[C@@H](O[C@@H]4O[C@H](CO)[C@@H](O)[C@H](O)[C@H]4O)[C@@H]3[C@@]3(CO)O[C@@H]23)ccc1O [Picroside II]	-0.222	-0.537		23683.5	3659.57	-0.853	13671.5					
CC(=O)O[C@H]1C(=O)c2c(O)cc(O)cc2O[C@@H]1c1ccccc1 [Pinobanksin 3-acetate]	0.2		20089.3	28746.2	11432.4	-0.125		0.037				
COc1cc(O)cc(/C=C/c2ccc(O)cc2)c1 [Pinostilbene]	0.091	-0.306				-0.704	16345.6				27446.2	5245.02
COc1cc(O)c2c(c1)O[C@H](c1ccccc1)CC2=O [Pinostrobin]	-0.797	-0.422				-0.047	14520.5				16779.4	12261.6
O=C1C[C@@H](c2cc(O)c(O)c(O[C@@H]3O[C@H](CO)[C@@H](O)[C@H](O)[C@H]3O)c2)Oc2cc(O)cc(O)c21 [Plantagoside]	0.333		21412.5	30340.8	12484.2	-0.026			0.153			
CC1=CC(=O)c2c(O)cccc2C1=O [Plumbagin]	-2.104	-1.504	2099.32	1092.19	3106.45	-0.904						
COc1cc2c(=O)c3c(O)c([C@@H]4O[C@H](CO[C@@H]5OC[C@](O)(CO)[C@H]5O)[C@@H](O)[C@H](O)[C@H]4O)c(O)cc3oc2cc1O [Polygalaxanthone III]	-0.439		20150.3	21083.3	19217.2	0.604		0.083				

Now from value to compound, other results behind:

Z repl 1	av Z [1]	av puncta (average of raw data 1 and 2)	raw data 1 (puncta)	raw data 2 (puncta)	Z Repl 2	av puncta [2]	av Z [3]	av Z [4]	av Z (average Z score of the two replicates, tau biosensor seeding, MCE Phenols Library screen)	Structure (SMILES)	raw data 1 (raw puncta)	raw data 2 (raw puncta)
0.114		23298.5	27718.4	18878.6	0.572			0.343		Oc1cc(O)c2c(c1)O[C@@]1(c3ccc(O)c(O)c3)Oc3cc(O)c4c(c3[C@@H]2[C@H]1O)O[C@H](c1ccc(O)c(O)c1)[C@@H](O)C4 [Procyanidin A1]		
-0.531	-0.725		19975.5	2954.48	-0.919	11465				Oc1cc(O)c2c(c1)O[C@@]1(c3ccc(O)c(O)c3)Oc3cc(O)c4c(c3[C@@H]2[C@H]1O)O[C@H](c1ccc(O)c(O)c1)[C@H](O)C4 [Procyanidin A2]		
-0.678	-0.695		18204.5	5175.99	-0.711	11690.3				Oc1cc(O)c2c(c1)O[C@H](c1ccc(O)c(O)c1)[C@H](O)[C@H]2c1c(O)cc(O)c2c1O[C@H](c1ccc(O)c(O)c1)[C@H](O)C2 [Procyanidin B2]		
0.76		32664.3	35473.6	29854.9	1.6				1.18	Oc1cc(O)c2c(c1)O[C@H](c1ccc(O)c(O)c1)[C@H](O)[C@H]2c1c(O)cc(O)c2c1O[C@H](c1ccc(O)c(O)c1)[C@H](O)[C@H]2c1c(O)cc(O)c2c1O[C@H](c1ccc(O)c(O)c1)[C@H](O)C2 [Procyanidin C1]		
